Test results taken from ChEMBL document CHEMBL1201862, “PubChem BioAssay data set” (2004).
The source made the active and inactive calls.

Legend:
[1] = target: T1, Short transient receptor potential channel 4 (Mus musculus, UniProt Q9QUQ5); test: block of DAMGO-driven TRPC4 calcium entry – cell-based, HEK293 TRPC4/mu-opioid, Fluo-4 calcium, dose response (AID 434942); assay type: functional;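 further: potency of inhibitors blocking the TRPC4 calcium response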
T1 sequence (Q9QUQ5 whole entry): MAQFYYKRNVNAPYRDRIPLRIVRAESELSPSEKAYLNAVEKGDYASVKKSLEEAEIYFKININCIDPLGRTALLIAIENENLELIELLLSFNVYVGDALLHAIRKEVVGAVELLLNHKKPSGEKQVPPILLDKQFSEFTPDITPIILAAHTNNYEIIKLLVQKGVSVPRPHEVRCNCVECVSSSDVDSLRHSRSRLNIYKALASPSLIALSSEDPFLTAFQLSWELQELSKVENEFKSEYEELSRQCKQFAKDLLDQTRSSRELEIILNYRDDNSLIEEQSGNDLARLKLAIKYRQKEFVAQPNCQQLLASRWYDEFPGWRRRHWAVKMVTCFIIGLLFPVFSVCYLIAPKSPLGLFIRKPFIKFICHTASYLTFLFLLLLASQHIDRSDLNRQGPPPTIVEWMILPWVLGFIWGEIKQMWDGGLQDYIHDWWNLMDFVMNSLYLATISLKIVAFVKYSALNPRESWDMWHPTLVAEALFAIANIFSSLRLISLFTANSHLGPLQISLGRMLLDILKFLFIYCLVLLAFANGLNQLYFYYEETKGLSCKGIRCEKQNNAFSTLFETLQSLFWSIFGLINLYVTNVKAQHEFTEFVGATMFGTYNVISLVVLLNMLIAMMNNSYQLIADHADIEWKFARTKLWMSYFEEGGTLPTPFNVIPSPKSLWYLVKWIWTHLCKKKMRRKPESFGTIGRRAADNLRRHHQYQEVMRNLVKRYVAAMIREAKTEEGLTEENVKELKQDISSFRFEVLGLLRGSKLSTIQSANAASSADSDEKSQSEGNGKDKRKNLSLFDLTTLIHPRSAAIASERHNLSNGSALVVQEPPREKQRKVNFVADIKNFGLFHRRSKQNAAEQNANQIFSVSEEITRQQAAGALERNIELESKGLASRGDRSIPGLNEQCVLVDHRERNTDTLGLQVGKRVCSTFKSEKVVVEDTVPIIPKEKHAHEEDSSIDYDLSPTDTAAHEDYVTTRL

[2] = A Cell Based Secondary Assay To Explore Cytotoxicity of Compounds that Sensitize Mycobacterium Tuberculosis to Beta-Lactam Antibiotics.; assay type: functional
[3] = target: Eukaryotic translation initiation factor 4E (Mus musculus, UniProt P63073); test: blockers of eIF4G binding by eIF4E – biochemical, TR-FRET, dose response (AID 855); assay type: functional;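 further: potency for disrupting eIF4E binding to eIF4GI seen as loss of FRET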
[4] = blockers of CRF-binding protein–CRF-R2 complex – cell-based, uHTS hits, 384-well, dose response (AID 651639); assay type: functional, Homo sapiens; details: read-out: IC50_Mean
[5] = fluconazole-exposed Candida albicans growth modulators – fluorescence, retest, confirmation (AID 2467); assay type: functional, cell-based
[6] = target: Heat shock protein HSP 90-alpha (Homo sapiens, UniProt P07900); assay type: functional, organism-based
[7] = system: Vero; test: viability of Vero cells under compound – cytotoxicity control for flavivirus capping enzyme inhibitors (AID 588742); assay type: functional; details: Chlorocebus sabaeus
[8] = target: T2, RNA-binding protein pos-1 (Caenorhabditis elegans, UniProt G5EF15); test: disruptors of C. elegans POS-1 RNA interaction – biochemical, fluorescence polarization, dose response (AID 1964);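 further: purified POS-1 fused to maltose binding protein made in E. coli; potency of compounds blocking POS-1 binding to fluorescent RNA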
T2 sequence (G5EF15 whole entry): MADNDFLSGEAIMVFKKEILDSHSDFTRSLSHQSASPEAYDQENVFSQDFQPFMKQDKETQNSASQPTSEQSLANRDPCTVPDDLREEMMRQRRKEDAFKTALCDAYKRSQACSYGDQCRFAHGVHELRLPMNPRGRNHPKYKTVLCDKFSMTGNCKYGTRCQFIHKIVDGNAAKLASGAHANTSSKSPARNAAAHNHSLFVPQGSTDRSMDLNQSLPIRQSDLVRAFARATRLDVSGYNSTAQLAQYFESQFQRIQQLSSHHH

[9] = target: Genome polyprotein (dengue virus type 2, UniProt P29990); test: flavivirus cap methylation enzyme inhibition – biochemical, confirmation dose response, primary screen (AID 588689); assay type: functional
[10] = NIH-3T3 fibroblast cytotoxicity, dose response, cytotoxicity control, cell-based, fluorescence, Alamar Blue, secondary assay (AID 2327); assay type: functional;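 further: NIH-3T3 mouse fibroblasts cultured with fluconazole at 8 µg/mL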
[11] = system: Streptococcus; test: GAS UMAA2166 growth inhibition – luminescence, BacTiterGlo, counter-screen for streptokinase expression inhibitor project, dose response (AID 1915); assay type: functional, organism-based;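 further: potency for reduction of bacterial viability or growth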
[12] = system: Streptococcus sp. 'group A'; test: Streptococcus pyogenes SK(-)GAS viability under kanamycin – luminescence, BacTiterGlo, confirmation, counter-screen for streptokinase expression inhibitor project, dose response (AID 1900); assay type: functional, organism-based
[13] = target: T3, Streptokinase A (Streptococcus pyogenes serotype M1, UniProt P10520); test: viability-normalized secreted streptokinase activity reduction – plasminogen activation absorbance, OD405, dose response (AID 1914); assay type: functional, Streptococcus pyogenes M1 GAS;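 further: secreted streptokinase activity via plasminogen activation per viability signal from cell pellet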
T3 sequence (P10520 whole entry): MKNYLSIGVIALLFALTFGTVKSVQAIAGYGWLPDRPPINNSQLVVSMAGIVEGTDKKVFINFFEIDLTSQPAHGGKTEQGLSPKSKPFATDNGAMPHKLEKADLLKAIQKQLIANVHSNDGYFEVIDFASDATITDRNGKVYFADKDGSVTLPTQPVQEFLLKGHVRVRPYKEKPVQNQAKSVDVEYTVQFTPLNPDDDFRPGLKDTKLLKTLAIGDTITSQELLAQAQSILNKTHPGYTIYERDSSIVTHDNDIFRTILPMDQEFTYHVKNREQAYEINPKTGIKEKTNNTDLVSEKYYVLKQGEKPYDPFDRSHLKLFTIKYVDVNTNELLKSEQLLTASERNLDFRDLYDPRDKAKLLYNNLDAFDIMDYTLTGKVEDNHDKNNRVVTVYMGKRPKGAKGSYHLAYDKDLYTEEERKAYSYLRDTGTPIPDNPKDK

[14] = target: T4, Zinc finger protein mex-5 (Caenorhabditis elegans, UniProt Q9XUB2); test: potency of MEX-5 RNA-binding blockers – biochemical, C. elegans, fluorescence polarization, dose response (AID 1960)
T4 sequence (Q9XUB2 whole entry): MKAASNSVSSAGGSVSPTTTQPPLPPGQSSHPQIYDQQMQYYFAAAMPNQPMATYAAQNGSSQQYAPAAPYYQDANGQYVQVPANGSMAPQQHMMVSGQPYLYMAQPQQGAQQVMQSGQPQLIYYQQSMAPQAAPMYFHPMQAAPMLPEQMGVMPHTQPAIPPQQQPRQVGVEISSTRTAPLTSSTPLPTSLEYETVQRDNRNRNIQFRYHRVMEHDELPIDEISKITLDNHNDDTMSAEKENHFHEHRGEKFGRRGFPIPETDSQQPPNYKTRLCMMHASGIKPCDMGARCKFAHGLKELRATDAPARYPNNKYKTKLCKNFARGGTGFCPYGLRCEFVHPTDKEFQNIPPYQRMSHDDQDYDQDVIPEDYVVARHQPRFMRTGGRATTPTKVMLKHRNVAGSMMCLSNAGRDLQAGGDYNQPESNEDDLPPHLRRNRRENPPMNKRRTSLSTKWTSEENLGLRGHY

[15] = target: T5, Corticotropin-releasing factor receptor 2/Corticotropin-releasing factor-binding protein (Homo sapiens, UniProt P24387+Q13324); test: activators of CRF receptor 2 with binding protein – uHTS hits, confirmation (AID 602473); assay type: functional; details: read-out: EC50_Mean
T5 sequence (Q13324 whole entry): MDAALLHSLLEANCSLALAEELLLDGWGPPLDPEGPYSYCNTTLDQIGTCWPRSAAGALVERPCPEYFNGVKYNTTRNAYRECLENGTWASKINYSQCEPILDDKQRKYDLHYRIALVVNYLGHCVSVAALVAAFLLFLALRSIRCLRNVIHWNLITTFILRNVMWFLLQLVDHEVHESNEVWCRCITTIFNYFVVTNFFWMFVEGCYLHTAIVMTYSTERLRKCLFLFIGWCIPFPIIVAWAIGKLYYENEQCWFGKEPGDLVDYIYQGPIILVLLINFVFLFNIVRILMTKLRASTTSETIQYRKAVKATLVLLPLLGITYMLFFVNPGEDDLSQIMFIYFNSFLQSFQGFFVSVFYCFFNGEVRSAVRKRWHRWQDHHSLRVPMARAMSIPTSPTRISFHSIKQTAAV
T5 sequence (P24387 whole entry): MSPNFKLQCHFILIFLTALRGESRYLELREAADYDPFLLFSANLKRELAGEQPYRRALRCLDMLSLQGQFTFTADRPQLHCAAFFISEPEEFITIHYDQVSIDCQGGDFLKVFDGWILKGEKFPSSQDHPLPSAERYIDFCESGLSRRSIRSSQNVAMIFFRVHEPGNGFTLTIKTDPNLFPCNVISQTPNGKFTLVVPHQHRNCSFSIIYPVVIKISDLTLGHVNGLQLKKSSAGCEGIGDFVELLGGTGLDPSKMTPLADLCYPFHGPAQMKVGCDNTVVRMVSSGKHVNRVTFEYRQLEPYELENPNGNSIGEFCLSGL

[16] = target: T5, Corticotropin-releasing factor receptor 2/Corticotropin-releasing factor-binding protein; test: Dose Response confirmation of uHTS hits for small molecule antagonists of the CRF-binding protein and CRF-R2 receptor complex.; assay type: functional; details: read-out: IC50_Mean
[17] = Luminescence Cell-Based Dose Retest to Confirm Inhibitors of Cancer Stem Cells. [Related pubchem assays (depositor defined):AID2717, AID2721]; assay type: functional; details: Homo sapiens

SMILES: CCN(CC)CCN(C(=O)c1ccccc1OC)c1nc2ccc(F)cc2s1
- EC50 [1]: 2.11 µM (active)

SMILES: COc1cc(NC(=O)c2cc(-c3cccnc3)nc3ccc(Br)cc23)cc(OC)c1
- CC50 [2]: > 40 µM (active)

SMILES: CC(C)N(Cc1nc(-c2ccccc2)no1)C(=O)COc1ccccc1
- IC50 [3]: > 64 µM (inactive)

SMILES: COc1cc(N=C(S)NCCC(c2ccccc2)c2ccccc2)c(OC)cc1Cl
- IC50 [4]: > 20 µM (inactive)

SMILES: CCCN1CCN(C(=O)CCCNC(=O)Cn2cnc3sc(C)c(C)c3c2=O)CC1
- IC50 [3]: > 64 µM (inactive)

SMILES: CC(C)C1Nc2c(O)cc(Cl)c([N+](=O)[O-])c2C2C=CCC21 (stereo not given)
- EC50 [5]: 0.227 µM (active)
- AC50 [6]: 8.49 µM (active)
- CC50 [7]: 27.8 µM (active)
- EC50 [8]: > 300 µM (not active)
- IC50 [9]: 68.9 µM (active)
- EC50 [10]: 21.9 µM (inconclusive)
- EC50 [11]: 6.36 µM (active)
- EC50 [12]: 3.07 µM (active)
- EC50 [13]: > 150 µM (not active)
- EC50 [14]: 58.5 µM (active)

SMILES: N#CN=C(Nc1cccc(F)c1)SCc1ccccc1
- IC50 [4]: > 20 µM (inactive)

SMILES: Cc1ccc(OCC(COCc2ccccc2)NC(C)C)cc1 (stereo not given)
- EC50 [1]: 3.76 µM (active)

SMILES: Cc1ccc(C)c(N2CCN(S(=O)(=O)c3ccc4c(c3)C(C)(C)C(=O)N4C)CC2)c1
- EC50 [15]: > 53 µM (inactive)
- IC50 [16]: 38.6 µM (active)
- IC50 [4]: 9.45 µM (active)

SMILES: COc1ccc(CN2CCCCC2C)cc1C (stereo not given)
- EC50 [15]: 2.45 µM (active)
- IC50 [16]: < 0.368 µM (active)
- IC50 [4]: 20 µM (active)

SMILES: CN1CCN(c2ccccc2NC(=O)c2ccc(-c3ccc(Cl)c(Cl)c3)o2)CC1
- AC50 [17]: 4.06 µM (active)
- CC50 [2]: 25.2 µM (active)
